# Read-outs that look alike come from different tables or passages of the source.
# What was measured:
# [1] = target: T1, rat α1B+α2b+β1b channels (N-type channels) (Rattus norvegicus, UniProt Q02294); assay: Block of α1B N-type channels, whole cell patch recordings (Example 6); type: cell-based; conditions: HEK 293, 5 mM barium as charge carrier
# T1 construct: expressed in transfected cells
# Description: Antagonist activity was measured using whole cell patch recordings on human embryonic kidney cells either stably or transiently expressing rat α1B+α2b+β1b channels (N-type channels) with 5 mM barium as a charge carrier.
# For transient expression, host cells, such as human embryonic kidney cells, HEK 293 (ATCC# CRL 1573) were grown in standard DMEM medium supplemented with 2 mM glutamine and 10% fetal bovine serum. HEK 293 cells were transfected by a standard calcium-phosphate-DNA coprecipitation method using the rat α1B+β1b+α2δ N-type calcium channel subunits in a vertebrate expression vector (for example, see Current Protocols in Molecular Biology).
# After an incubation period of from 24 to 72 hrs the culture medium was removed and replaced with external recording solution (see below). Whole cell patch clamp experiments were performed using an Axopatch 200B amplifier (Axon Instruments, Burlingame, Calif.) linked to an IBM compatible personal computer equipped with pCLAMP software. Borosilicate glass patch pipettes (Sutter Instrument Co., Novato, Calif.) were polished (Microforge, Narishige, Japan) to a resistance of about 4 MΩ when filled with cesium methanesulfonate internal solution (composition in MM: 109 CsCH3SO4, 4 MgCl2, 9 EGTA, 9 HEPES, pH 7.2). Cells were bathed in 5 mM Ba^++ (in mM: 5 BaCl2, 1 MgCl2, 10 HEPES, 40 tetraethylammonium chloride, 10 glucose, 87.5 CsCl pH 7.2). […] Drugs were perfused directly into the vicinity of the cells using a microperfusion system.
# Normalized dose-response curves were fit (Sigmaplot 4.0, SPSS Inc., Chicago, Ill.) by the Hill equation to determine IC50 values. Steady-state inactivation curves were plotted as the normalized test pulse amplitude following 5 s inactivating prepulses at +10 mV increments. Inactivation curves were fit (Sigmaplot 4.0) with the Boltzman equation, Ipeak (normalized)=1/(1+exp((V-Vh)z/25.6)), where V and Vh are the conditioning and half inactivation potentials, respectively, and z is the slope factor.
# Using the procedure set forth above, various compounds of the invention were tested for their ability to block N-type calcium channels.
# [2] = target: T2, human α1G subunits (T-type channels) (Homo sapiens, UniProt O43497); assay: Block of α1G T-type channels, patch clamp in HEK cell lines (Example 8); type: cell-based
# T2 construct: expressed in transfected cells
# T2 sequence (O43497 whole entry): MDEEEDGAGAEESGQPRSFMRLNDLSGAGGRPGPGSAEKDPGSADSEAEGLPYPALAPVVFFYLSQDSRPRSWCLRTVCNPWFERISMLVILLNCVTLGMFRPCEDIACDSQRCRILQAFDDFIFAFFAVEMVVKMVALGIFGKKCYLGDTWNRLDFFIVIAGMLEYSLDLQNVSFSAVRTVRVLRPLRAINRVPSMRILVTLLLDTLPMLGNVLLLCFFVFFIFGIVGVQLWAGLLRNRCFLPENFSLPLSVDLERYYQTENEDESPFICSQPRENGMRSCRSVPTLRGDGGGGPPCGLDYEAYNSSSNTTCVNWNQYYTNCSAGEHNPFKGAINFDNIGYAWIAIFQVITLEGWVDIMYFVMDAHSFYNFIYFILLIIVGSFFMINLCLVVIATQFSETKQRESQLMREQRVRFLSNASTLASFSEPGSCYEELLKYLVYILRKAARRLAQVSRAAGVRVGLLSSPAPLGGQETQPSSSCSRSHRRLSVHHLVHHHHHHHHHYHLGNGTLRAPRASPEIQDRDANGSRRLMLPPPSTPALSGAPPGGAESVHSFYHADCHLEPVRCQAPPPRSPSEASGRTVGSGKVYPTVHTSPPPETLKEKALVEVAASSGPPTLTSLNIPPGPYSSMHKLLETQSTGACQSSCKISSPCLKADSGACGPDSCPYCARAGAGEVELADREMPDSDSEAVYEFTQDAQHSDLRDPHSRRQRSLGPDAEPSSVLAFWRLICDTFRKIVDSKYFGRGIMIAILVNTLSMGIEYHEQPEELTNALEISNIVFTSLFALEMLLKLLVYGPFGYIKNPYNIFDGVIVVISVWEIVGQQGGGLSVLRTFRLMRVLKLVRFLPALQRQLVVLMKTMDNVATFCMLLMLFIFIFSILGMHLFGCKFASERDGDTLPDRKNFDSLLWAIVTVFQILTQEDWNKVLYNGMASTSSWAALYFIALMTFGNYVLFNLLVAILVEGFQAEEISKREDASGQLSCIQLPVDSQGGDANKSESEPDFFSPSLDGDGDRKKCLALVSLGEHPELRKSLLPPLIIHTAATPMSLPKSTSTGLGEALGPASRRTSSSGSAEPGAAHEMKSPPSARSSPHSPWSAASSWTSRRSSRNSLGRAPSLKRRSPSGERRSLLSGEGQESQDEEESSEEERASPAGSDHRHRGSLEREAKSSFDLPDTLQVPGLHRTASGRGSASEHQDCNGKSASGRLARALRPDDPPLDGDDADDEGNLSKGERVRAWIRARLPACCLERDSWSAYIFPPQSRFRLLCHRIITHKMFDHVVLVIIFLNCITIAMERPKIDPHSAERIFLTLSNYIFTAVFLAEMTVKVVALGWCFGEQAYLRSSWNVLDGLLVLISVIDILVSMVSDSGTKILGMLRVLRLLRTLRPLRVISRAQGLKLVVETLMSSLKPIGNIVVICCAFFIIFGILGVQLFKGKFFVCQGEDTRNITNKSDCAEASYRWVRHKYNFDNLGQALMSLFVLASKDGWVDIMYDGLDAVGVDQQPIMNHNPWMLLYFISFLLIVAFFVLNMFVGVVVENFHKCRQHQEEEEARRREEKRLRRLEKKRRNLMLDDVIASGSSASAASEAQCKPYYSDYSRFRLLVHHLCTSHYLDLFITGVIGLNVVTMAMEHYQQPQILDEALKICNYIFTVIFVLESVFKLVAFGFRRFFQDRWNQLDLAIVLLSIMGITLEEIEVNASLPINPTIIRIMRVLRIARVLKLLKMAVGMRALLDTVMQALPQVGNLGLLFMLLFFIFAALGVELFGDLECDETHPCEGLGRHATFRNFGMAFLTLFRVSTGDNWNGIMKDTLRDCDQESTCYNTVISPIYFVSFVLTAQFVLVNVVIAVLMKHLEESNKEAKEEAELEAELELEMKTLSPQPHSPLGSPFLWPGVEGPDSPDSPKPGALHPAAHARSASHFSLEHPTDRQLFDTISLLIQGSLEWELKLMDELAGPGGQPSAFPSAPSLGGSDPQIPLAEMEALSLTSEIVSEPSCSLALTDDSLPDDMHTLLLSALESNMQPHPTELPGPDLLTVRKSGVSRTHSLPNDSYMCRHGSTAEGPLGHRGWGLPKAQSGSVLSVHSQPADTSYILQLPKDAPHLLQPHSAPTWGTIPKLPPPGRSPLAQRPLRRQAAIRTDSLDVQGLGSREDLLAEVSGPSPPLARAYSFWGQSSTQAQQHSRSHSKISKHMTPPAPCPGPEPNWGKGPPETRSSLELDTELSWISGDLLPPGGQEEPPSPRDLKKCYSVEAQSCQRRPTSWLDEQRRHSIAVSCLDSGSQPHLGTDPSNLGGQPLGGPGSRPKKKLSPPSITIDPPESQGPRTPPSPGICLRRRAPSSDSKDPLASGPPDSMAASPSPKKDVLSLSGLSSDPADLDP
# Description: Standard patch-clamp techniques were employed to identify blockers of T-type currents. Briefly, previously described HEK cell lines stably expressing human α1G subunits were used for all the recordings (passage #: 4-20, 37° C., 5% CO2). To obtain T-type currents, plastic dishes containing semi-confluent cells were positioned on the stage of a ZEISS AXIOVERT S100 microscope after replacing the culture medium with external solution (see below). Whole-cell patches were obtained using pipettes (borosilicate glass with filament, O.D.: 1.5 mm, I.D.: 0.86 mm, 10 cm length), fabricated on a SUTTER P-97 puller with resistance values of ˜5 MΩ (see below for internal medium).
# In the non-inactivating protocol, the holding potential is set at −110 mV and with a pre-pulse at −100 mV for 1 second prior to the test pulse at −40 mV for 50 ms; in the inactivation protocol, the pre-pulse is at approximately −85 mV for 1 second, which inactivates about 15% of the T-type channels, as shown below. [formula]
# Test compounds were dissolved in external solution, 0.1-0.01% DMSO. After ˜10 min rest, they were applied by gravity close to the cell using a WPI microfil tubing. The “non-inactivated” pre-pulse was used to examine the resting block of a compound. The “inactivated” protocol was employed to study voltage-dependent block, but the initial data shown below were mainly obtained using the non-inactivated protocol only. IC50 values are shown for various compounds of the invention in Table 5.
# rat formalin model = assay: Formalin-induced pain model; type: in vivo; conditions: 30 mg/kg IP, 10 minutes prior to formalin, saline control=100%
# Description: The effects of intrathecally delivered compounds of the invention on the rat formalin model were measured. The compounds were reconstituted to stock solutions of approximately 10 mg/ml in propylene glycol. Eight Holtsman male rats of 275-375 g size were randomly selected per test compound.
# The following study groups were used, with test compounds, vehicle control (propylene glycol) and saline delivered intraperitoneally (IP):
# Prior to initiation of drug delivery baseline behavioral and testing data were taken.
# On the morning of testing, a small metal band (0.5 g) was loosely placed around the right hind paw. The rat was placed in a cylindrical Plexiglas chamber for adaptation a minimum of 30 minutes. Test compound or vehicle control was administered 10 minutes prior to formalin injection (50 μl of 5% formalin) into the dorsal surface of the right hindpaw of the rat. The animal was then placed into the chamber of the automated formalin apparatus where movement of the formalin injected paw was monitored and the number of paw flinches tallied by minute over the next 60 minutes. (See Malmberg, A. M., and Yaksh, T. L., Anesthesiology (1993) 79:270-281.)
# Results are presented as Maximum Possible Effect±SEM, where saline control=100%.
# [3] = 0.067 Hz, read-out: Block of α1B N-type Channels IC50, 0.067 Hz
# [4] = 0.2 Hz, read-out: Block of α1B N-type Channels IC50, 0.2 Hz
# [5] = 100 mV (non-inactivating protocol), read-out: Block of α1G T-type Channels IC50, 100 mV
# [6] = 80 mV (inactivation protocol), read-out: Block of α1G T-type Channels IC50, 80 mV
# [7] = 100 mV (non-inactivating protocol)
# T1 sequence (Q02294 whole entry): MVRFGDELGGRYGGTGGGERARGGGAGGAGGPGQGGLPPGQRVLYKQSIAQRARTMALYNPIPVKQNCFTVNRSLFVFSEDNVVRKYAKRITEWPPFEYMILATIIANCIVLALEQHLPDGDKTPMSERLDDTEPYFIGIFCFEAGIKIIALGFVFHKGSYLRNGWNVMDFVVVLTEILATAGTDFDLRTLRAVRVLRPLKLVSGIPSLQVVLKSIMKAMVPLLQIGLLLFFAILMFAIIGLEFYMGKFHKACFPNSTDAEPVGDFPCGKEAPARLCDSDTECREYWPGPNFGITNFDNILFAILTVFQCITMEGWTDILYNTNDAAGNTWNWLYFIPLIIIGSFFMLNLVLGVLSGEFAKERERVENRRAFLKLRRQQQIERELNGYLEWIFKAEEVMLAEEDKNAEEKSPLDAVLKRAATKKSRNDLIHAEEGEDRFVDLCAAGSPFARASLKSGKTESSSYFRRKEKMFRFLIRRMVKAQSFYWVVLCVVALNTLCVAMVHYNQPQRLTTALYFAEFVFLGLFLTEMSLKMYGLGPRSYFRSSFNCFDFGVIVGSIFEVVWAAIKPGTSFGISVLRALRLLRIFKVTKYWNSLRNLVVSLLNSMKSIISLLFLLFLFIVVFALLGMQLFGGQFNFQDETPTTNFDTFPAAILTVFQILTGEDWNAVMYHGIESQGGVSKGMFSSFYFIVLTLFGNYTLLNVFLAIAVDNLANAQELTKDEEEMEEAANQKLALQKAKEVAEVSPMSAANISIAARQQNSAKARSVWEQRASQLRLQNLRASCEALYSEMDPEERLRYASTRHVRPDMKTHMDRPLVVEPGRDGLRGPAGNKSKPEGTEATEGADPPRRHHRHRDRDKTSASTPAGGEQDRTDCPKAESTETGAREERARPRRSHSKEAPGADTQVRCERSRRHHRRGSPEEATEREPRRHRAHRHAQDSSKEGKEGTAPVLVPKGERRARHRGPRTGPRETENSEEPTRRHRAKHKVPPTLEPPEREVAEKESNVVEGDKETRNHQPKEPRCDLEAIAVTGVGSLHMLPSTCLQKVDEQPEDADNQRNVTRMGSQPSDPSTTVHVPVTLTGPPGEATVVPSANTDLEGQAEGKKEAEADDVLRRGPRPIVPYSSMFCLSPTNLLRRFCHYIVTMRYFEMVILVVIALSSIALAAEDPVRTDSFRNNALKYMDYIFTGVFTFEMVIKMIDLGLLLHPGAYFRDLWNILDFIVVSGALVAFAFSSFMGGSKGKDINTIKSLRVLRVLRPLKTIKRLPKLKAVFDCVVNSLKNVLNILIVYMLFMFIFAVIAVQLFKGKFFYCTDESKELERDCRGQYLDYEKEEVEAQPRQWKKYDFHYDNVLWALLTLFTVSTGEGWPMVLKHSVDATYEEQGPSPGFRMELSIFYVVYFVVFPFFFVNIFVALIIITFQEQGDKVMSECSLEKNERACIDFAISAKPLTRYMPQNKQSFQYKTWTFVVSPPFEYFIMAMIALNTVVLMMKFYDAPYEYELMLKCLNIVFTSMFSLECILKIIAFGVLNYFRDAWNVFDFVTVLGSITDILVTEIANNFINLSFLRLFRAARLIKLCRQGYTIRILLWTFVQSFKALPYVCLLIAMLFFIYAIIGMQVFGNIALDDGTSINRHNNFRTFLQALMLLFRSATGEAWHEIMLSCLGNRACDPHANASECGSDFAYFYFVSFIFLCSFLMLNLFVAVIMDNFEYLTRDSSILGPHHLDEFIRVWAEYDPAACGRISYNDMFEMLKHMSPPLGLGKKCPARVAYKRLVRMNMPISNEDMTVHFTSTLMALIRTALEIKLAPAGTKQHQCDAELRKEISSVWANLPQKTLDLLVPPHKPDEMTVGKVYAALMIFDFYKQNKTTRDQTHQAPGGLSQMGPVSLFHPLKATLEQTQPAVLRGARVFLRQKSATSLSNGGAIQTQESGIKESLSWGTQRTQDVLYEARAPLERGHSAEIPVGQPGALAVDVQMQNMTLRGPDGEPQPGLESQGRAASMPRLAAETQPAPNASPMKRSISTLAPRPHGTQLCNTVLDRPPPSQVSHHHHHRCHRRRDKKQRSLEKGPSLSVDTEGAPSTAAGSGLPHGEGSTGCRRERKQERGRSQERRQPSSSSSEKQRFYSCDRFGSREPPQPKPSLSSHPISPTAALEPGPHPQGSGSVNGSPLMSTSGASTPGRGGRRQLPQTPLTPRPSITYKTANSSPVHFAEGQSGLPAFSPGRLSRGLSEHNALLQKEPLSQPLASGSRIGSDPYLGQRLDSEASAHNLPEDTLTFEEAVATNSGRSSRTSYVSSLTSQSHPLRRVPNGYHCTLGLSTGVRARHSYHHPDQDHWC
Structure (SMILES),"IC50 [1, 3] [nM]","IC50 [1, 4] [nM]","IC50 [2, 5] [nM]",other results
COc1cc(OC)cc(C(c2ccccc2)N2CCN(C(=O)CC(c3ccccc3)c3ccccc3)CC2)c1 (centres unmarked) [Compound P14],320,210,–,–
CC(C)(C)c1ccc(C(c2ccccc2)N2CCN(C(=O)CC(c3ccccc3)c3ccccc3)CC2)cc1 (centres unmarked) [Compound P11],370,190,–,–
COc1ccc(C(c2ccc(OC)cc2)N2CCN(C(=O)CC(c3ccccc3)c3ccccc3)CC2)cc1 [Compound P19],360,249,745,–
O=C(CC(c1ccccc1)c1ccccc1)N1CCN(C2c3ccccc3Oc3ccccc32)CC1 [Compound P16],290,220,–,–
O=C(CC(c1ccccc1)c1ccccc1)N1CCN(C2c3ccccc3-c3ccccc32)CC1 [Compound P31],–,–,371,–
O=C(CC(c1ccccc1)c1ccccc1)N1CCN(C(c2ccccc2)c2cc(Cl)cc(Cl)c2)CC1 (centres unmarked) [Compound P9],230,170,> 1000,–
COc1ccc(C(c2ccc3c(c2)OCO3)N2CCN(C(=O)CC(c3ccccc3)c3ccccc3)CC2)cc1 (centres unmarked) [Compound P26],710,533,–,–
O=C(CC(c1ccccc1)c1ccccc1)N1CCN(C(c2ccccc2)c2ccccc2C(F)(F)F)CC1 (centres unmarked) [Compound P22],538,301,–,–
O=C(CC(c1ccccc1)c1ccccc1)N1CCN(C(c2ccccc2)c2c(Cl)cccc2Cl)CC1 (centres unmarked) [Compound P13],300,210,< 1000,–
O=C(CC(c1ccccc1)c1ccccc1)N1CCN(C(c2ccccc2)c2ccc(Cl)c(Cl)c2)CC1 (centres unmarked) [Compound P30],> 1000,> 1000,> 1000,–
O=C(CC1c2ccccc2-c2ccccc21)N1CCN(C(c2ccccc2)c2ccccc2)CC1 [Compound P33],–,–,404,–
Cc1ccc(C(c2ccccc2)N2CCN(C(=O)CC(c3ccccc3)c3ccccc3)CC2)cc1 (centres unmarked) [Compound P23],490,310,–,–
O=C(CN(c1ccccc1)c1ccccc1)N1CCN(C(c2ccccc2)c2cccc(Cl)c2Cl)CC1 (centres unmarked) [Compound P50],–,–,–,"Maximum Possible Effect ± SEM, Phase I (rat formalin model): 60 ± 7%; Maximum Possible Effect ± SEM, Phase II (rat formalin model): 63 ± 10%; Maximum Possible Effect ± SEM, Phase IIA (rat formalin model): 63 ± 13%"
O=C(CC(c1ccccc1)c1ccccc1)N1CCN(C(c2ccccc2)c2ccccc2OC(F)F)CC1 (centres unmarked) [Compound P12],340,190,–,–
O=C(CC(c1ccccc1)c1ccccc1)N1CCN(C(c2ccccc2)c2cc(C(F)(F)F)cc(C(F)(F)F)c2)CC1 (centres unmarked) [Compound P10],550,450,–,–
COc1ccc(C(c2ccccc2)N2CCN(C(=O)CC(c3ccccc3)c3ccccc3)CC2)cc1 (centres unmarked) [Compound P20],320,250,–,–
COc1cc(C(c2ccccc2)N2CCN(C(=O)CC(c3ccccc3)c3ccccc3)CC2)cc(OC)c1OC (centres unmarked) [Compound P25],1090,513,–,–
COc1cc(C(c2ccccc2)N2CCN(C(=O)CC(c3ccccc3)c3ccccc3)CC2)cc(OC)c1O (centres unmarked) [Compound P21],437,252,–,–
O=C(CC(c1ccccc1)c1ccccc1)N1CCN(C(c2ccccc2)c2cccc(Cl)c2Cl)CC1 (centres unmarked) [Compound P15],348,217,63,–
O=C(CC(c1ccccc1)c1ccccc1)N1CCN(C(c2ccccc2)c2ccc(OCc3ccccc3)cc2)CC1 (centres unmarked) [Compound P17],286,233,–,"Block of α1G T-type Channels IC50, 100 mV [2, 7]: No effect"
O=C(CC(c1ccccc1)c1ccccc1)N1CCN(C(c2ccccc2)c2ccc(F)cc2)CC1 (centres unmarked) [Compound P24],600,380,–,–
O=C(CC(c1ccccc1)c1ccccc1)N1CCN(C2c3ccccc3S(=O)(=O)c3ccccc32)CC1 [Compound P27],854,552,–,–

# Now from value to compound, other results behind:
"IC50 [1, 3] [nM]","IC50 [1, 4] [nM]","IC50 [2, 5] [nM]",Structure (SMILES),other results
737,680,–,"O=C(CC(c1ccccc1)c1ccccc1)N1CCN(C(c2ccccc2)c2ccccc2)C(=O)C1 [Compound P34, 1-Benzhydryl-4-(3,3-diphenyl-propionyl)-piperazin-2-one]",–
162,24,991,CC1CN(C(c2ccccc2)c2ccccc2)CCN1C(=O)CC(c1ccccc1)c1ccccc1 (centres unmarked) [Compound P37],"IC50 [2, 6]: 474 nM"
340,320,2700,O=C(CC(c1ccccc1)c1ccccc1)N1CCN(C(c2ccccc2)c2ccc(O)cc2)CC1 (centres unmarked) [Compound P49],"IC50 [2, 6]: 835 nM"
200,160,699,O=C(O)C1CN(C(c2ccccc2)c2ccccc2)CCN1C(=O)CC1c2ccccc2-c2ccccc21 (centres unmarked) [Compound P38],"IC50 [2, 6]: 181 nM"
230,220,10000,N#CC1CN(C(c2ccccc2)c2ccccc2)CCN1C(=O)CC(c1ccccc1)c1ccccc1 (centres unmarked) [Compound P45],"IC50 [2, 6]: 833 nM"
> 1000,> 1000,–,O=C(CC(c1ccccc1)c1ccccc1)N1CCN(C(c2ccccc2)c2ccc(Cl)cc2Cl)CC1 (centres unmarked) [P29 (HC1)],–
240,190,2200,CCOC(=O)C1CN(C(c2ccccc2)c2ccccc2)CCN1C(=O)CC1c2ccccc2-c2ccccc21 (centres unmarked) [Compound P39],"IC50 [2, 6]: 768 nM"
300,190,–,O=C(CC(c1ccccc1)c1ccccc1)N1CCN(C(c2ccccc2)c2cc(C(F)(F)F)cc(C(F)(F)F)c2)CC1 (centres unmarked) [P10 (HC1)],–
1900,1490,–,O=C(O)C1CN(C(c2ccccc2)c2ccccc2)CCN1C(=O)CC(c1ccccc1)c1ccccc1 (centres unmarked) [Compound P42],"IC50 [2, 6]: 1840 nM; Block of α1G T-type Channels IC50, 100 mV [2, 7]: no effect"
> 1000,830,–,O=C(CC(c1ccccc1)c1ccccc1)N1CCN(C2c3ccccc3CCc3ccccc32)CC1 [P32 (HC1)],–
167,83,2380,CCOC(=O)C1CN(C(c2ccccc2)c2ccccc2)CCN1C(=O)CC(c1ccccc1)c1ccccc1 (centres unmarked) [Compound P43],"IC50 [2, 6]: 279 nM"
420,390,1010,CCOC(=O)C1CN(C(c2ccccc2)c2ccccc2)CCN1C(=O)CC(c1ccccc1)c1ccccc1 (centres unmarked) [Compound P41],"IC50 [2, 6]: 363 nM"

# From patent publication US20040259866A1, “Calcium channel blockers comprising two benzhydril moieties” (priority 1998, published 2004)
